Source: ChEMBL document CHEMBL1201862, “PubChem BioAssay data set” (2004)
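These data come from cells grown in 96-well plates and exposed to compound for 48 hours at five concentrations. GI50: concentration for 50% inhibition of growth.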 Activity calls are given as the source filed them. Rule as the data show it: active = GI50 up to about 1.1 µM and inactive = higher.

Assays:
Assay in all cases: inhibition of tumour cell growth, NCI panel, 48 h
786-0 = test system: 786-0
A498 = test system: A498
A549 = test system: A549
ACHN = test system: ACHN
CAKI-1 = test system: CAKI-1
CCRF-CEM = test system: CCRF-CEM
COLO 205 = test system: COLO 205
DLD-1 = test system: DLD-1
DMS-114 = test system: DMS-114
EKVX = test system: EKVX
HCC 2998 = test system: HCC 2998
HCT-116 = test system: HCT-116
HCT-15 = test system: HCT-15
HL-60 = test system: HL-60
HOP-18 = test system: HOP-18
HOP-62 = test system: HOP-62
HOP-92 = test system: HOP-92
HT-29 = test system: HT-29
IGROV-1 = test system: IGROV-1
K562 = test system: K562
KM-20L2 = test system: KM-20L2
KM12 = test system: KM12
LOX IMVI = test system: LOX IMVI
LXFL 529 = test system: LXFL 529
M14 = test system: M14
M19-MEL = test system: M19-MEL
MOLT-4 = test system: MOLT-4
Malme-3M = test system: Malme-3M
NCI-H226 = test system: NCI-H226
NCI-H23 = test system: NCI-H23
NCI-H460 = test system: NCI-H460
OVCAR-3 = test system: OVCAR-3
OVCAR-4 = test system: OVCAR-4
OVCAR-5 = test system: OVCAR-5
OVCAR-8 = test system: OVCAR-8
RPMI-8226 = test system: RPMI-8226
RXF 393 = test system: RXF 393
SF-295 = test system: SF-295
SF-539 = test system: SF-539
SK-MEL-2 = test system: SK-MEL-2
SK-MEL-5 = test system: SK-MEL-5
SK-OV-3 = test system: SK-OV-3
SN12C = test system: SN12C
SNB-19 = test system: SNB-19
SNB-75 = test system: SNB-75
SNB-78 = test system: SNB-78
SW-620 = test system: SW-620
TK-10 = test system: TK-10
U-251 = test system: U-251
UACC-257 = test system: UACC-257
UACC-62 = test system: UACC-62
UO-31 = test system: UO-31
XF498 = test system: XF498
NCI-H522 = test system: NCI-H522
SK-MEL-28 = test system: SK-MEL-28
SR = test system: SR
SF-268 = test system: SF-268

Measured: GI50

COc1nc(NC2OC(COC(C)=O)C(OC(C)=O)C(OC(C)=O)C2OC(C)=O)c2c(OC(C)=O)c(C)c(=O)oc2n1 (centres undefined)
inactive: 786-0 > 100 µM | A498 1.75 µM | A549 > 100 µM | ACHN 1.7 µM | CAKI-1 > 100 µM | CCRF-CEM > 100 µM | COLO 205 > 100 µM | DLD-1 > 100 µM | DMS-114 > 100 µM | EKVX > 100 µM | HCC 2998 > 100 µM | HCT-116 > 100 µM | HL-60 > 100 µM | HOP-18 > 100 µM | HOP-62 > 100 µM | HOP-92 > 100 µM | HT-29 > 100 µM | IGROV-1 > 100 µM | K562 > 100 µM | KM-20L2 > 100 µM | KM12 > 100 µM | LOX IMVI > 100 µM | LXFL 529 > 100 µM | M14 > 100 µM | M19-MEL > 100 µM | MOLT-4 > 100 µM | Malme-3M > 100 µM | NCI-H226 > 100 µM | NCI-H23 > 100 µM | NCI-H460 1.67 µM | OVCAR-3 > 100 µM | OVCAR-4 > 100 µM | OVCAR-5 > 100 µM | OVCAR-8 > 100 µM | RPMI-8226 > 100 µM | RXF 393 > 100 µM | SF-295 > 100 µM | SF-539 > 100 µM | SK-MEL-2 > 100 µM | SK-MEL-5 > 100 µM | SK-OV-3 > 100 µM | SN12C > 100 µM | SNB-19 > 100 µM | SNB-75 > 100 µM | SNB-78 > 100 µM | SW-620 > 100 µM | TK-10 > 100 µM | U-251 > 100 µM | UACC-257 > 100 µM | UACC-62 > 100 µM | UO-31 > 100 µM | XF498 > 100 µM
> 100 µM: HCT-15

COC1CC(OC)C(O)C(CO)O1 (centres undefined)
inactive: 786-0 > 100 µM | A549 > 100 µM | ACHN > 100 µM | CCRF-CEM > 100 µM | DLD-1 > 100 µM | EKVX > 100 µM | HCC 2998 > 100 µM | HCT-116 > 100 µM | HL-60 > 100 µM | HOP-18 > 100 µM | HOP-62 > 100 µM | HT-29 > 100 µM | IGROV-1 > 100 µM | K562 > 100 µM | KM-20L2 > 100 µM | KM12 > 100 µM | LOX IMVI > 100 µM | LXFL 529 > 100 µM | M14 > 100 µM | M19-MEL > 100 µM | MOLT-4 > 100 µM | Malme-3M > 100 µM | NCI-H23 > 100 µM | NCI-H460 > 100 µM | NCI-H522 > 100 µM | OVCAR-3 > 100 µM | OVCAR-4 > 100 µM | OVCAR-5 > 100 µM | OVCAR-8 > 100 µM | RXF 393 > 100 µM | SF-295 > 100 µM | SF-539 > 100 µM | SK-MEL-28 > 100 µM | SK-MEL-2 > 100 µM | SK-MEL-5 > 100 µM | SK-OV-3 > 100 µM | SN12C > 100 µM | SNB-75 > 100 µM | SNB-78 > 100 µM | SR > 100 µM | SW-620 > 100 µM | TK-10 > 100 µM | U-251 > 100 µM | UACC-257 > 100 µM | UACC-62 > 100 µM | UO-31 > 100 µM | XF498 > 100 µM
> 100 µM: HCT-15

COC(CN1C=C(Sc2ccccc2)CC1)OC
37.7 µM: HCT-15
inactive: 786-0 36.4 µM | A498 48.2 µM | A549 30.8 µM | ACHN 34.6 µM | CAKI-1 41.4 µM | CCRF-CEM 19.5 µM | COLO 205 22.6 µM | DLD-1 29 µM | DMS-114 23.2 µM | EKVX 43.3 µM | HCC 2998 33.9 µM | HCT-116 29.5 µM | HL-60 15.6 µM | HOP-18 59.3 µM | HOP-62 47.3 µM | HOP-92 26.9 µM | HT-29 24.8 µM | IGROV-1 53.2 µM | K562 20.7 µM | KM-20L2 38.8 µM | KM12 23.8 µM | LOX IMVI 24.8 µM | M14 33.7 µM | M19-MEL 31.8 µM | MOLT-4 27.2 µM | Malme-3M 35.9 µM | NCI-H226 33.3 µM | NCI-H23 23.7 µM | NCI-H460 31.7 µM | OVCAR-3 20.2 µM | OVCAR-4 34 µM | OVCAR-5 49.2 µM | OVCAR-8 29.6 µM | RPMI-8226 21.7 µM | RXF 393 20.8 µM | SF-268 29.7 µM | SF-295 19.5 µM | SF-539 26.4 µM | SK-MEL-28 31 µM | SK-MEL-2 19.4 µM | SK-MEL-5 18.9 µM | SK-OV-3 37 µM | SN12C 33.9 µM | SNB-19 37.8 µM | SNB-75 19 µM | SNB-78 34.3 µM | SW-620 21.9 µM | TK-10 32.7 µM | UACC-257 34.8 µM | UACC-62 31.8 µM | UO-31 29.9 µM | XF498 22.4 µM
